Results as given in PubChem BioAssay (NCI).
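Results reflect a 48-hour exposure of cells in 96-well plates to compound at five concentrations. GI50 = concentration required for 50% inhibition of growth. TGI is the concentration that stops growth completely.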

Assays:
Assay in all cases: NCI-60 cell line screen, 48 h
[1] = test system: 786-0 renal
[2] = test system: NCI-H226 lung
[3] = test system: IGROV1 ovarian
[4] = test system: UACC-62 melanoma
[5] = test system: SN12C renal
[6] = test system: SR leukemia
[7] = test system: NCI-H522 lung
[8] = test system: A549 NSCLC
[9] = test system: SK-MEL-28 melanoma
[10] = test system: A498 renal
[11] = test system: SW-620 colon
[12] = test system: UACC-257 melanoma
[13] = test system: SK-MEL-5 melanoma
[14] = test system: CAKI-1 renal
[15] = test system: UO-31 renal
[16] = test system: SK-MEL-2 melanoma
[17] = test system: COLO 205 colon
[18] = test system: PC-3 prostate
[19] = test system: KM12 colon
[20] = test system: BT-549 breast
[21] = test system: K-562 leukemia
[22] = test system: OVCAR-4 ovarian
[23] = test system: NCI-H23 lung
[24] = test system: SK-OV-3 ovarian
[25] = test system: HCT-116 colon
[26] = test system: HCC-2998 colon
[27] = test system: HT29 colon
[28] = test system: MCF7 breast
[29] = test system: T-47D breast
[30] = test system: EKVX NSCLC
[31] = test system: SF-539 CNS
[32] = test system: MDA-MB-231 breast
[33] = test system: HL-60(TB) leukemia
[34] = test system: HS 578T breast
[35] = test system: MDA-MB-435
[36] = test system: HOP-92 NSCLC
[37] = test system: OVCAR-8 ovarian
[38] = test system: DU-145 prostate
[39] = test system: CCRF-CEM leukemia
[40] = test system: OVCAR-3 ovarian
[41] = test system: HCT-15 colon
[42] = test system: ACHN renal
[43] = test system: MOLT-4 leukemia
[44] = test system: MALME-3M melanoma
[45] = test system: SF-295 CNS
[46] = test system: RXF 393 renal
[47] = test system: M14 melanoma
[48] = test system: TK-10 renal
[49] = test system: OVCAR-5 ovarian
[50] = test system: HOP-62 NSCLC
[51] = test system: SF-268 CNS
[52] = test system: U251 CNS
[53] = test system: NCI-H460 lung
[54] = test system: RPMI-8226 leukemia
[55] = test system: LOX IMVI melanoma
[56] = test system: SNB-19 CNS
[57] = test system: SNB-75 CNS
[58] = test system: NCI/ADR-RES ovarian

C#CCNC(=S)N/N=C(\C)c1ccccn1
GI50 [1]: 0.354 µM
TGI [1]: > 100 µM
GI50 [2]: 0.406 µM
TGI [2]: 3.33 µM
GI50 [3]: 0.0522 µM
TGI [3]: > 100 µM
GI50 [4]: 1.12 µM
TGI [4]: 4.38 µM
GI50 [5]: 0.388 µM
TGI [5]: > 100 µM
GI50 [6]: 0.328 µM
TGI [6]: 3.4 µM
GI50 [7]: 3.33 µM
TGI [7]: > 100 µM
GI50 [8]: 1.18 µM
TGI [8]: > 100 µM
GI50 [9]: 2.32 µM
TGI [9]: > 100 µM
GI50 [10]: 1.07 µM
TGI [10]: 10.1 µM
GI50 [11]: 0.341 µM
TGI [11]: > 100 µM
GI50 [12]: 0.302 µM
TGI [12]: 1.49 µM
GI50 [13]: 0.617 µM
TGI [13]: 2.7 µM
GI50 [14]: 0.396 µM
TGI [14]: > 33.8 µM
GI50 [15]: 0.333 µM
TGI [15]: > 100 µM
GI50 [16]: 6.2 µM
TGI [16]: > 100 µM
GI50 [17]: 0.184 µM
TGI [17]: > 100 µM
GI50 [18]: 0.393 µM
TGI [18]: > 100 µM
GI50 [19]: 0.426 µM
TGI [19]: > 100 µM
GI50 [20]: 0.618 µM
TGI [20]: > 100 µM
GI50 [21]: 0.0751 µM
TGI [21]: > 100 µM
GI50 [22]: 0.0519 µM
TGI [22]: 1.35 µM
GI50 [23]: 0.208 µM
TGI [23]: > 100 µM
GI50 [24]: 3 µM
TGI [24]: > 100 µM
GI50 [25]: 0.0329 µM
TGI [25]: > 38 µM
GI50 [26]: 1.24 µM
TGI [26]: > 100 µM
GI50 [27]: 0.234 µM
TGI [27]: > 100 µM
GI50 [28]: 0.0792 µM
TGI [28]: > 100 µM
GI50 [29]: 0.0933 µM
TGI [29]: > 100 µM
GI50 [30]: 0.595 µM
TGI [30]: > 100 µM
GI50 [31]: 0.35 µM
TGI [31]: 3.52 µM
GI50 [32]: 0.292 µM
TGI [32]: > 100 µM
GI50 [33]: 0.084 µM
TGI [33]: 0.36 µM
GI50 [34]: 9.84 µM
TGI [34]: > 100 µM
GI50 [35]: 3.1 µM
TGI [35]: > 100 µM
GI50 [36]: 0.28 µM
TGI [36]: > 100 µM
GI50 [37]: 0.284 µM
TGI [37]: > 100 µM
GI50 [38]: 0.404 µM
TGI [38]: > 59.3 µM
GI50 [39]: 0.0677 µM
TGI [39]: > 100 µM
GI50 [40]: 0.0353 µM
TGI [40]: 19.4 µM
GI50 [41]: 0.36 µM
TGI [41]: > 100 µM
GI50 [42]: 0.313 µM
TGI [42]: > 100 µM
GI50 [43]: 0.126 µM
GI50 [44]: 1.51 µM
TGI [44]: > 100 µM
GI50 [45]: 0.706 µM
TGI [45]: > 100 µM
GI50 [46]: 0.641 µM
TGI [46]: 4.9 µM
GI50 [47]: 0.454 µM
TGI [47]: 5.15 µM
GI50 [48]: 3.07 µM
TGI [48]: > 100 µM
GI50 [49]: 0.885 µM
TGI [49]: > 100 µM
GI50 [50]: 1.25 µM
TGI [50]: 16 µM
GI50 [51]: 0.517 µM
TGI [51]: > 100 µM
GI50 [52]: 0.408 µM
TGI [52]: > 100 µM
GI50 [53]: 0.949 µM
TGI [53]: 5.22 µM
GI50 [54]: 0.201 µM
TGI [54]: 1.7 µM
GI50 [55]: 0.588 µM
TGI [55]: > 32 µM
GI50 [56]: 3.43 µM
TGI [56]: > 100 µM
GI50 [57]: 0.943 µM
TGI [57]: > 23.7 µM

CC1CN(S(=O)(=O)c2oc(-c3ccc(Cl)cc3)nc2C#N)CC(C)O1 (stereo not given)
GI50 [1]: 1.62 µM
TGI [1]: 3.3 µM
GI50 [2]: 18.1 µM
TGI [2]: 39.9 µM
GI50 [3]: 1.87 µM
TGI [3]: 3.69 µM
GI50 [4]: 3.08 µM
TGI [4]: 11 µM
GI50 [5]: 1.7 µM
TGI [5]: 3.23 µM
GI50 [7]: 0.945 µM
TGI [7]: 2.79 µM
GI50 [8]: 15.5 µM
TGI [8]: 32.9 µM
GI50 [9]: 1.81 µM
TGI [9]: 3.38 µM
GI50 [10]: 14.4 µM
TGI [10]: 27.5 µM
GI50 [11]: 1.36 µM
TGI [11]: 3.09 µM
GI50 [12]: 2.15 µM
TGI [12]: 6.34 µM
GI50 [13]: 2.27 µM
TGI [13]: 5.16 µM
GI50 [14]: 1.56 µM
TGI [14]: 2.93 µM
GI50 [15]: 1.56 µM
TGI [15]: 2.91 µM
GI50 [16]: 4.1 µM
TGI [16]: 14.6 µM
GI50 [17]: 2.04 µM
TGI [17]: 4.35 µM
GI50 [18]: 1.97 µM
TGI [18]: 4.04 µM
GI50 [19]: 10.3 µM
TGI [19]: 23.5 µM
GI50 [20]: 1.97 µM
TGI [20]: 4.49 µM
GI50 [21]: 2.07 µM
TGI [21]: > 100 µM
GI50 [22]: 2.02 µM
TGI [22]: 4.65 µM
GI50 [23]: 3.99 µM
TGI [23]: 15.9 µM
GI50 [58]: 10.7 µM
TGI [58]: 65.5 µM
GI50 [24]: 25.1 µM
TGI [24]: 70.6 µM
GI50 [25]: 1.59 µM
TGI [25]: 3.13 µM
GI50 [26]: 2.27 µM
TGI [26]: 5.43 µM
GI50 [27]: 2.06 µM
TGI [27]: 4.11 µM
GI50 [28]: 1.59 µM
TGI [28]: 3.94 µM
GI50 [29]: 2.3 µM
TGI [29]: 6.24 µM
GI50 [30]: 7.34 µM
TGI [30]: 27.9 µM
GI50 [31]: 1.78 µM
TGI [31]: 3.28 µM
GI50 [32]: 1.91 µM
TGI [32]: 3.8 µM
GI50 [33]: 2.09 µM
TGI [33]: 5.84 µM
GI50 [34]: 3.92 µM
TGI [34]: 27.2 µM
GI50 [35]: 1.89 µM
TGI [35]: 4.01 µM
GI50 [36]: 1.78 µM
TGI [36]: 3.45 µM
GI50 [37]: 3.19 µM
TGI [37]: 21.2 µM
GI50 [38]: 1.92 µM
TGI [38]: 4.1 µM
GI50 [39]: 0.505 µM
TGI [39]: 4.24 µM
GI50 [40]: 1.56 µM
TGI [40]: 3.12 µM
GI50 [41]: 1.41 µM
TGI [41]: 3.04 µM
GI50 [42]: 1.74 µM
TGI [42]: 3.13 µM
GI50 [43]: 1.19 µM
TGI [43]: 4.5 µM
GI50 [44]: 1.57 µM
TGI [44]: 2.96 µM
GI50 [45]: 13.8 µM
TGI [45]: 27.2 µM
GI50 [46]: 1.69 µM
TGI [46]: 3.15 µM
GI50 [47]: 1.62 µM
TGI [47]: 3.39 µM
GI50 [48]: 1.75 µM
TGI [48]: 3.26 µM
GI50 [49]: 2.07 µM
TGI [49]: 4.44 µM
GI50 [50]: 14 µM
TGI [50]: 42.2 µM
GI50 [51]: 1.93 µM
TGI [51]: 4.14 µM
GI50 [52]: 9.4 µM
TGI [52]: 22.7 µM
GI50 [53]: 11.5 µM
TGI [53]: 26 µM
GI50 [55]: 0.926 µM
TGI [55]: 2.35 µM
GI50 [56]: 12.5 µM
TGI [56]: 25 µM
GI50 [57]: 10.6 µM
TGI [57]: 22.7 µM
